Reference: article PMC8513920 (Chemical Science, 2021)
Values after ≈ are worked out from the molar mass of the structure shown.

Test: High-throughput Equilibrium Solubility measurement
Format: physicochemical
Settings: phosphate buffer, pH 6.8

- solubility: 17 µM (≈ 6.4 µg/mL)
Compound: N#Cc1c[nH]c2c(C(=O)N3CCN(CCc4ccc(F)cc4)CC3)cccc12 [compound 3, pruvanserin]
